Measured values: patent publication US20250353891A1 (MEDIMMUNE LIMITED, priority 2022, published 2025)
Starred links: 1 amine or outer side, 2 acyl side, 3 side chain; linkers in the order of their positions; H or OH if unused. Non-standard residues stand in square brackets, D forms with d. Residues, ends and D or L forms follow the SMILES beside them. Groups on a side chain read outwards from the residue. *: point of attachment. C20 diacid = O=C(O)CCCCCCCCCCCCCCCCCCC(=O)*; C18 diacid = O=C(O)CCCCCCCCCCCCCCCCC(=O)*; γGlu = O=C(O)[C@H](CCC(=O)[*:2])N[*:1]; αMeF = C[C@](N)(Cc1ccccc1)C(=O)O; AEEA = NCCOCCOCC(=O)O; Aib = CC(C)(N)C(=O)O

What was measured:
[1] = target: human GLP-1 receptor (hGLP-1R) (Homo sapiens, UniProt P43220); experiment: cAMP production (HTRF) in CHO cells expressing hGLP-1R; format: cell-based; set-up: expressed in transfected cells; details: for EC50: Table 6, peptides modified at position 17, cAMP in CHO hGLP-1R cells, geometric mean, read-out: hGLP-1R EC50; for % Relative Potency Ratio: Table 6, % GLP-1R activity relative to GLP-1 / % GlucR activity relative to glucagon
Chain of human GLP-1 receptor (hGLP-1R) (P43220 24-463): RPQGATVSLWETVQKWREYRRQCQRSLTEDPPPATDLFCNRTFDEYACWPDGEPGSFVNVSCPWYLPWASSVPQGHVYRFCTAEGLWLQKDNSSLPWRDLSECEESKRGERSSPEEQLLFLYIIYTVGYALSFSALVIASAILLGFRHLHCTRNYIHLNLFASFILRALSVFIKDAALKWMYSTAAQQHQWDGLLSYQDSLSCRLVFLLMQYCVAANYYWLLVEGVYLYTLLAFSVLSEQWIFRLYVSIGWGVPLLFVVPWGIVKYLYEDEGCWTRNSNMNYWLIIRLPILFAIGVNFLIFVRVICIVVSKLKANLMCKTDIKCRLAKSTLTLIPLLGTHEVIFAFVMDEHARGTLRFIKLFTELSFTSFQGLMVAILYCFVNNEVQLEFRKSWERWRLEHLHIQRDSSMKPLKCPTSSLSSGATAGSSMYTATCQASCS
How it was run: (§1)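 Cells were resuspended in assay buffer at batch-optimized density, typically 1×10^5 cells/mL for hGLP-1R and 2×10^5 cells/mL for hGCGR. After 30 min incubation at room temperature with compound, cAMP was measured by two-step HTRF. EC50 values came from 4-parameter logistic fits of % Delta F.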

[2] = target: human glucagon receptor (hGCGR) (Homo sapiens, UniProt P47871); experiment: cAMP production (HTRF) in CHO cells expressing hGCGR; format: cell-based; set-up: expressed in transfected cells; details: Table 6, peptides modified at position 17; cAMP in CHO hGCGR cells; geometric mean; read-out: hGluc-R EC50
Chain of human glucagon receptor (hGCGR) (P47871 26-477): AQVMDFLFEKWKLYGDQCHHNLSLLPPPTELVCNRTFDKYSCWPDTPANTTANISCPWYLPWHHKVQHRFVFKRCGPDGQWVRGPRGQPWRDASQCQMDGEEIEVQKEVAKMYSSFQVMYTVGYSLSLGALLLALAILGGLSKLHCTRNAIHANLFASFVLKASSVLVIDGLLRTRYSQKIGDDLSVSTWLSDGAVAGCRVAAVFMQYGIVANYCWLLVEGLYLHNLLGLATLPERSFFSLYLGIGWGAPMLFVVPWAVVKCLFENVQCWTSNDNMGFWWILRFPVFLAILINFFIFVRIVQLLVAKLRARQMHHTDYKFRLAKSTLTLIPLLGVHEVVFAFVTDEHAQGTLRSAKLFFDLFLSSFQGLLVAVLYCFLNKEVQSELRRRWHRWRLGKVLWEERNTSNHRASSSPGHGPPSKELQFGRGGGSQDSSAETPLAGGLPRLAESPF
How it was run: as §1

SMILES | EC50 [1] [nM] | % Relative Potency Ratio [1] | EC50 [2] [nM]
CC(C)C[C@H](NC(=O)[C@H](Cc1c[nH]c2ccccc12)NC(=O)[C@H](C)NC(=O)[C@@H](NC(=O)[C@H](Cc1ccccc1)NC(=O)[C@H](CC(=O)O)NC(=O)[C@H](CCC(N)=O)NC(=O)[C@H](C)NC(=O)[C@H](CCCNC(=N)N)NC(=O)[C@H](CCCCNC(=O)COCCOCCNC(=O)COCCOCCNC(=O)CC[C@H](NC(=O)CCCCCCCCCCCCCCCCCCC(=O)O)C(=O)O)NC(=O)[C@@H](NC(=O)[C@H](CC(=O)O)NC(=O)[C@H](CC(C)C)NC(=O)[C@](C)(Cc1ccccc1)NC(=O)[C@H](CCCCN)NC(=O)[C@H](CO)NC(=O)[C@@H](NC(=O)[C@H](CC(=O)O)NC(=O)[C@H](CO)NC(=O)[C@@H](NC(=O)[C@H](Cc1ccccc1)NC(=O)[C@@H](NC(=O)CNC(=O)[C@H](CCC(N)=O)NC(=O)C(C)(C)NC(=O)[C@@H](N)Cc1c[nH]cn1)[C@@H](C)O)[C@@H](C)O)C(C)C)[C@@H](C)O)C(C)C)C(=O)N[C@@H](CCC(=O)O)C(=O)N[C@@H](C)C(=O)NCC(=O)NCC(=O)O [Peptide 412] (H-H[Aib]QGTFTSDVSK[αMeF]LDTK([AEEA-AEEA-γGlu-C20 diacid])RAQDFVAWLEAGG-OH; N-terminus assumed) | 0.186 | 4.2 | 0.397
CC(C)C[C@H](NC(=O)[C@H](Cc1c[nH]c2ccccc12)NC(=O)[C@H](C)NC(=O)[C@@H](NC(=O)[C@H](Cc1ccccc1)NC(=O)[C@H](CC(=O)O)NC(=O)[C@H](CCC(N)=O)NC(=O)[C@H](C)NC(=O)[C@H](CCCNC(=N)N)NC(=O)[C@H](CCCCNC(=O)COCCOCCNC(=O)COCCOCCNC(=O)CC[C@H](NC(=O)CC[C@H](NC(=O)CCCCCCCCCCCCCCCCCCC(=O)O)C(=O)O)C(=O)O)NC(=O)[C@@H](NC(=O)[C@H](CC(=O)O)NC(=O)[C@H](CC(C)C)NC(=O)[C@](C)(Cc1ccccc1)NC(=O)[C@H](CCCCN)NC(=O)[C@H](CO)NC(=O)[C@@H](NC(=O)[C@H](CC(=O)O)NC(=O)[C@H](CO)NC(=O)[C@@H](NC(=O)[C@H](Cc1ccccc1)NC(=O)[C@@H](NC(=O)CNC(=O)[C@H](CCC(N)=O)NC(=O)C(C)(C)NC(=O)[C@@H](N)Cc1c[nH]cn1)[C@@H](C)O)[C@@H](C)O)C(C)C)[C@@H](C)O)C(C)C)C(=O)N[C@@H](CCC(=O)O)C(=O)N[C@@H](C)C(=O)NCC(=O)NCC(=O)O [Peptide 413] | 0.406 | 5.0 | 1.02
CC(C)C[C@H](NC(=O)[C@H](Cc1c[nH]c2ccccc12)NC(=O)[C@H](CCCNC(=N)N)NC(=O)[C@@H](NC(=O)[C@H](Cc1ccccc1)NC(=O)[C@H](CC(=O)O)NC(=O)[C@H](CCCNC(=N)N)NC(=O)[C@H](C)NC(=O)[C@H](CCCNC(=N)N)NC(=O)[C@H](CCCCNC(=O)COCCOCCNC(=O)COCCOCCNC(=O)CC[C@H](NC(=O)CCCCCCCCCCCCCCCCC(=O)O)C(=O)O)NC(=O)[C@H](CCCCN)NC(=O)[C@H](CC(=O)O)NC(=O)[C@H](CC(C)C)NC(=O)[C@](C)(Cc1ccccc1)NC(=O)[C@H](CCCCN)NC(=O)[C@H](CO)NC(=O)[C@@H](NC(=O)[C@H](CC(=O)O)NC(=O)[C@H](CO)NC(=O)[C@@H](NC(=O)[C@H](Cc1ccccc1)NC(=O)[C@@H](NC(=O)CNC(=O)[C@H](CCC(N)=O)NC(=O)C(C)(C)NC(=O)[C@@H](N)Cc1c[nH]cn1)[C@@H](C)O)[C@@H](C)O)C(C)C)C(C)C)C(=O)N[C@@H](CC(C)C)C(=O)NC(C)(C)C(=O)N[C@@H](CCC(=O)O)C(=O)O [Peptide 414] (H-H[Aib]QGTFTSDVSK[αMeF]LDKK([AEEA-AEEA-γGlu-C18 diacid])RARDFVRWLL[Aib]E-OH; N-terminus assumed) | 0.0323 | 1.6 | 0.0269
CC(C)C[C@H](NC(=O)[C@H](Cc1c[nH]c2ccccc12)NC(=O)[C@H](CCCNC(=N)N)NC(=O)[C@@H](NC(=O)[C@H](Cc1ccccc1)NC(=O)[C@H](CC(=O)O)NC(=O)[C@H](CCC(N)=O)NC(=O)[C@H](C)NC(=O)[C@H](CCCNC(=N)N)NC(=O)[C@H](CCCCNC(=O)COCCOCCNC(=O)COCCOCCNC(=O)CC[C@H](NC(=O)CCCCCCCCCCCCCCCCC(=O)O)C(=O)O)NC(=O)[C@H](CO)NC(=O)[C@H](CCC(=O)O)NC(=O)[C@H](CC(C)C)NC(=O)[C@](C)(Cc1ccccc1)NC(=O)[C@H](CCCCN)NC(=O)[C@H](CO)NC(=O)[C@@H](NC(=O)[C@H](CC(=O)O)NC(=O)[C@H](CO)NC(=O)[C@@H](NC(=O)[C@H](Cc1ccccc1)NC(=O)[C@@H](NC(=O)CNC(=O)[C@H](CCC(N)=O)NC(=O)C(C)(C)NC(=O)[C@@H](N)Cc1c[nH]cn1)[C@@H](C)O)[C@@H](C)O)C(C)C)C(C)C)C(=O)N[C@@H](CCC(=O)O)C(=O)N[C@@H](C)C(=O)NC(C)(C)C(=O)NCC(=O)O [Peptide 415] (H-H[Aib]QGTFTSDVSK[αMeF]LESK([AEEA-AEEA-γGlu-C18 diacid])RAQDFVRWLEA[Aib]G-OH; N-terminus assumed) | 0.0147 | 40.6 | 0.301
CC(C)C[C@H](NC(=O)[C@H](Cc1c[nH]c2ccccc12)NC(=O)[C@H](CCCNC(=N)N)NC(=O)[C@@H](NC(=O)[C@H](Cc1ccccc1)NC(=O)[C@H](CC(=O)O)NC(=O)[C@H](CCC(N)=O)NC(=O)[C@H](C)NC(=O)[C@H](CCCNC(=N)N)NC(=O)[C@H](CCCCNC(=O)COCCOCCNC(=O)COCCOCCNC(=O)CC[C@H](NC(=O)CCCCCCCCCCCCCCCCCCC(=O)O)C(=O)O)NC(=O)[C@H](CO)NC(=O)[C@H](CCC(=O)O)NC(=O)[C@H](CC(C)C)NC(=O)[C@](C)(Cc1ccccc1)NC(=O)[C@H](CCCCN)NC(=O)[C@H](CO)NC(=O)[C@@H](NC(=O)[C@H](CC(=O)O)NC(=O)[C@H](CO)NC(=O)[C@@H](NC(=O)[C@H](Cc1ccccc1)NC(=O)[C@@H](NC(=O)CNC(=O)[C@H](CCC(N)=O)NC(=O)C(C)(C)NC(=O)[C@@H](N)Cc1c[nH]cn1)[C@@H](C)O)[C@@H](C)O)C(C)C)C(C)C)C(=O)N[C@@H](CCC(=O)O)C(=O)N[C@@H](C)C(=O)NC(C)(C)C(=O)NCC(=O)O [Peptide 416] (H-H[Aib]QGTFTSDVSK[αMeF]LESK([AEEA-AEEA-γGlu-C20 diacid])RAQDFVRWLEA[Aib]G-OH; N-terminus assumed) | 0.0677 | 17.0 | 0.581
CC(C)C[C@H](NC(=O)[C@H](Cc1c[nH]c2ccccc12)NC(=O)[C@H](C)NC(=O)[C@@H](NC(=O)[C@H](Cc1ccccc1)NC(=O)[C@H](CC(=O)O)NC(=O)[C@H](CCC(N)=O)NC(=O)[C@H](C)NC(=O)[C@H](CCCNC(=N)N)NC(=O)[C@H](CCCCNC(=O)COCCOCCNC(=O)COCCOCCNC(=O)CC[C@H](NC(=O)CC[C@H](NC(=O)CCCCCCCCCCCCCCCCC(=O)O)C(=O)O)C(=O)O)NC(=O)[C@@H](NC(=O)[C@H](CC(=O)O)NC(=O)[C@H](CC(C)C)NC(=O)[C@](C)(Cc1ccccc1)NC(=O)[C@H](CCCCN)NC(=O)[C@H](CO)NC(=O)[C@@H](NC(=O)[C@H](CC(=O)O)NC(=O)[C@H](CO)NC(=O)[C@@H](NC(=O)[C@H](Cc1ccccc1)NC(=O)[C@@H](NC(=O)CNC(=O)[C@H](CCC(N)=O)NC(=O)C(C)(C)NC(=O)[C@@H](N)Cc1c[nH]cn1)[C@@H](C)O)[C@@H](C)O)C(C)C)[C@@H](C)O)C(C)C)C(=O)N[C@@H](CCC(=O)O)C(=O)N[C@@H](C)C(=O)NC(C)(C)C(=O)NCC(=O)O [Peptide 417] (H-H[Aib]QGTFTSDVSK[αMeF]LDTK([AEEA-AEEA-γGlu-γGlu-C18 diacid])RAQDFVAWLEA[Aib]G-OH; N-terminus assumed) | 0.0339 | 1.0 | 0.0164
CC(C)C[C@H](NC(=O)[C@H](Cc1c[nH]c2ccccc12)NC(=O)[C@H](C)NC(=O)[C@@H](NC(=O)[C@H](Cc1ccccc1)NC(=O)[C@H](CC(=O)O)NC(=O)[C@H](CCC(N)=O)NC(=O)[C@H](C)NC(=O)[C@H](CCCNC(=N)N)NC(=O)[C@H](CCCCNC(=O)COCCOCCNC(=O)COCCOCCNC(=O)CC[C@H](NC(=O)CC[C@H](NC(=O)CCCCCCCCCCCCCCCCCCC(=O)O)C(=O)O)C(=O)O)NC(=O)[C@@H](NC(=O)[C@H](CC(=O)O)NC(=O)[C@H](CC(C)C)NC(=O)[C@](C)(Cc1ccccc1)NC(=O)[C@H](CCCCN)NC(=O)[C@H](CO)NC(=O)[C@@H](NC(=O)[C@H](CC(=O)O)NC(=O)[C@H](CO)NC(=O)[C@@H](NC(=O)[C@H](Cc1ccccc1)NC(=O)[C@@H](NC(=O)CNC(=O)[C@H](CCC(N)=O)NC(=O)C(C)(C)NC(=O)[C@@H](N)Cc1c[nH]cn1)[C@@H](C)O)[C@@H](C)O)C(C)C)[C@@H](C)O)C(C)C)C(=O)N[C@@H](CCC(=O)O)C(=O)N[C@@H](C)C(=O)NC(C)(C)C(=O)NCC(=O)O [Peptide 418] (H-H[Aib]QGTFTSDVSK[αMeF]LDTK([AEEA-AEEA-γGlu-γGlu-C20 diacid])RAQDFVAWLEA[Aib]G-OH; N-terminus assumed) | 0.0881 | 5.0 | 0.222
